Assay results taken from patent publication US4443475A, “Amides of acyl-carnitines, process for preparing same and pharmaceutical compositions containing such amides” (priority 1979, dated 1984).
Where two headings read alike, the source gives them in different places.

Experiments:
[1] = Acute toxicity (LD50), Weil method; settings: mouse, in vivo, mice (Table I title)
[2] = Effect on spontaneous motility (ANIMEX); type: in vivo; settings: Mus musculus, ip, 0.5 h, mice, control 850 ± 65 in 30 min, read-out: Spontaneous motility, % increase versus controls; for change in vivo at 25 mg/kg: 25 mg/kg i.p.; for change in vivo at 50 mg/kg: 50 mg/kg i.p.
Experimental: (g) Effect on spontaneous motility
Male Albino Swiss mice weighing 18-22 g, were divided into two groups of 5 and caged for at least 1 week. One group received the compounds under investigation and the other group (control group) was given the vehicle. The animals remained in their cages and were placed on the ANIMEX (Farad-Sweden) apparatus which recorded the movements for two 30-minute intervals beginning from 5 minutes after administration of the compounds.
Table II gives the results expressed as percentage variation in the number of spontaneous movements of the treated animals versus those of the control animals.

[3] = Interaction with barbiturates (EVIPAN, loss of righting reflex); type: in vivo; settings: Mus musculus, ip, mice, EVIPAN 75 mg/kg, read-out: Barbituric interaction, % reduction of RR (righting reflex) loss; for inhibition in vivo at 50 mg/kg: 50 mg/kg i.p. (head); for inhibition in vivo at 100 mg/kg: 100 mg/kg i.p. (head)
isolated rabbit heart = test: Inotropic effect on isolated rabbit heart (Langendorff) after anoxia; settings: Oryctolagus cuniculus, 10 min; 10^-5 gl^-1, isolated rabbit heart, 10 minutes after end of anoxia; read-out: Inotropic Effect, % of controls (increased percentage versus controls)
Experimental: Rabbit hearts isolated by Langendorff's method were perfused in a Ringer solution oxygenated at 38.2° C. The isometric […], ECG and coronary flow were recorded using a "Battaglia-Rangoni" polygraph.
Metabolic damage in the heart muscle was induced by removing the oxygen from the perfusion liquid until contractile force was reduced by 80%.
In these conditions of prolonged anoxia myocardial […] glycolysis was slowed down, accompanied by accumulation of catabolic acids due to storage of pyruvic acid and its conversion to lactic acid which cannot be utilized owing to the depression of the pyridinic enzymes, such as lacticodehydrogenase. This affects anaerobic glycolysis involving an ever increasing number of enzymes, with a progressive and increasingly more critical exhaustion of the myocardium.
Thus there is a whole series of cardiac muscle fatigue levels recorded by the pattern of the parameters taken into account i.e. contractile force, coronary output, heart rate and cardiac rhythm. As soon as the contractile force was reduced by 80%, the perfusion liquid was once again oxygenated without adding other compounds (controls) or with the addition of the compounds under investigation at various concentrations.

[4] = Anti-arrhythmic (antifibrillation) effect, aconitine-induced arrhythmia; type: in vivo, mice; settings: Mus musculus, ip, read-out: Antifibrillation Effects, % reduction
Experimental: (c) Anti-arrhythmic effect
In order to evaluate by means of in vivo test the anti-arrhythmic effect exerted by the various carnitine derivatives in addition to and versus the usual in vitro tests, the method described by Nwangwu et al. (Arch. Int. Pharmacodyn., 1977, v. 229, 219) was employed.
This method is carried out by injecting a solution of aconitine into the caudal […] and recording the time of the appearance of arrhythmia and tachycardia from 2 to 60 minutes following the administration of the compounds under investigation.

[5] = Effect antagonizing adrenaline (mortality); type: in vivo; settings: Mus musculus, ip, mice, 36 hours, read-out: Antiadrenaline Effects, % mortality reduction; for responders at 100 mg/kg: 100 mg/kg i.p.; for responders at 50 mg/kg: 50 mg/kg i.p.; for responders at 70 mg/kg: 70 mg/kg i.p.; for responders at 300 mg/kg: 300 mg/kg i.p.
Experimental: (d) Effect antagonizing adrenaline
Male Albino Swiss mice weighing 12-22 g, divided into groups of 10, were treated with the compounds under investigation or with saline (controls) i.p. and then 30 minutes later with adrenaline (treated) at a dose capable of causing death in 100% of the control animals due to ventricular fibrillation and cardiac lesions ensuing from increased heart rate, pressure and oxygen consumption by the myocardium.
Mortality was monitored for 36 hours and the effect of the compounds was expressed in % of survivals versus treated animals.

[6] = Antagonism to cardiazol (protection from death by convulsions); type: in vivo; settings: ip, rat, 5 hours; for responders at 100 mg/kg: 100 mg/kg i.p. (head); for responders at 150 mg/kg: 150 mg/kg i.p. (head); for responders at 50 mg/kg: 50 mg/kg i.p. (head)

Row | SMILES | LD50 ([1]; ip, read-out: LD50 i.p.) [mg/kg] | LD50 ([1]; oral, read-out: LD50 oral) [mg/kg] | change in vivo at 25 mg/kg [2] [%] | activation at 0.01 µg/mL (isolated rabbit heart) [%] | inhibition in vivo at 50 mg/kg [3] [%] | inhibition in vivo at 50 mg/kg [4] [%] | change in vivo at 50 mg/kg [2] [%] | inhibition in vivo at 100 mg/kg [3] [%] | responders at 50 mg/kg [6] [%] | further results
1 | CCC(C)C(NC(=O)CC(C[N+](C)(C)C)OC(C)=O)C(=O)OC (stereo not drawn) | 500 | 1200 | 34 | 45 |  |  |  |  |  | inhibition in vivo at 40 mg/kg ([3]; 40 mg/kg i.p. (head)): 35%; inhibition in vivo at 40 mg/kg [4]: 65%; responders at 100 mg/kg [5]: 50%; responders at 100 mg/kg [6]: 53%
2 | COC(=O)C(NC(=O)CC(C[N+](C)(C)C)OC(C)=O)C(C)C (stereo not drawn) | 600 | 2400 |  | 70 | 40 | 100 |  |  |  | change in vivo at 35 mg/kg ([2]; 35 mg/kg i.p.): 50%; responders at 50 mg/kg [5]: 80%; responders at 100 mg/kg [6]: 84%
3 | COC(=O)C(CC(C)C)NC(=O)CC(C[N+](C)(C)C)OC(C)=O (stereo not drawn) | 1000 | 3500 | 28 | 45 | 35 | 70 |  |  |  | responders at 50 mg/kg [5]: 75%; responders at 150 mg/kg [6]: 60%
4 | CCOC(=O)CC(O)CNC(=O)CC(C[N+](C)(C)C)OC(C)=O (stereo not drawn) | 450 | 1300 |  | 53 | 25 | 65 | 30 |  |  | responders at 70 mg/kg [5]: 60%; responders at 150 mg/kg [6]: 70%
5 | CCC(=O)OC(CC(=O)NC(C(=O)OC)C(C)CC)C[N+](C)(C)C (stereo not drawn) | 750 | 2500 |  | 65 |  | 65 |  | 27 | 39 | change in vivo at 100 mg/kg ([2]; 100 mg/kg i.p.): 35%; responders at 100 mg/kg [5]: 50%
6 | CCC(=O)OC(CC(=O)NC(C(=O)OC)C(C)C)C[N+](C)(C)C (stereo not drawn) | 500 | 1350 | 75 | 65 | 58 |  |  |  |  | inhibition in vivo at 35 mg/kg [4]: 60%; responders at 50 mg/kg [5]: 40%; responders at 35 mg/kg ([6]; 35 mg/kg i.p. (head)): 38%
7 | CCC(=O)OC(CC(=O)NC(CC(=O)OC)C(=O)OC)C[N+](C)(C)C (stereo not drawn) | 590 | 1800 | 59 | 50 |  |  |  | 25 |  | inhibition in vivo at 40 mg/kg [4]: 70%; responders at 100 mg/kg [5]: 70%; responders at 40 mg/kg ([6]; 40 mg/kg i.p. (head)): 51%
8 | CCC(=O)OC(CC(=O)NC(CCC(=O)OC)C(=O)OC)C[N+](C)(C)C (stereo not drawn) | 400 | 1200 |  | 45 | 50 |  | 25 |  | 47 | inhibition in vivo at 10 mg/kg [4]: 60%; responders at 70 mg/kg [5]: 40%
9 | CC(=O)OC(CC(=O)NCCS(=O)(=O)[O-])C[N+](C)(C)C (stereo not drawn) [COCH3; 2-sulfonyl ethyl amino, acetyl carnitine amide with taurine] | 1500 | 4000 |  | 62 |  |  | 25 | 30 |  | inhibition in vivo at 300 mg/kg [4]: 70%; responders at 450 mg/kg ([5]; 450 mg/kg i.p.): 65%; responders at 150 mg/kg [6]: 65%
10 | COC(=O)CC(NC(=O)CC(C[N+](C)(C)C)OC(C)=O)C(=O)OC (stereo not drawn) [COCH3; (1,2-dicarbomethoxy ethyl) amino] | 1500 | 4200 |  | 48 |  |  | 60 |  | 75 | inhibition in vivo at 75 mg/kg [4]: 80%; responders at 300 mg/kg [5]: 55%
11 | COC(=O)CCC(NC(=O)CC(C[N+](C)(C)C)OC(C)=O)C(=O)OC (stereo not drawn) [COCH3; (1,3-dicarbomethoxy propyl) amino] | 1000 | 3600 | 19 | 40 |  |  |  |  | 70 | inhibition in vivo at 20 mg/kg ([3]; 20 mg/kg i.p. (head)): 40%; inhibition in vivo at 20 mg/kg [4]: 65%; responders at 150 mg/kg ([5]; 150 mg/kg i.p.): 40%
12 | CCC(=O)OC(CC(=O)NCCS(=O)(=O)[O-])C[N+](C)(C)C (stereo not drawn) [OCOCH2 CH3; 2-sulfonyl ethyl amino] | 1500 | 4000 |  | 50 |  |  | 40 | 60 |  | inhibition in vivo at 150 mg/kg [4]: 95%; responders at 300 mg/kg [5]: 70%; responders at 150 mg/kg [6]: 40%
13 | CCCC(=O)OC(CC(=O)NCCS(=O)(=O)[O-])C[N+](C)(C)C (stereo not drawn) [OCOCH2CH2CH3; 2-sulfonyl ethyl amino] | 1500 | 4000 |  | 40 | 70 | 60 | 43 |  | 58 | responders at 300 mg/kg [5]: 50%
14 | CCC(=O)OC(CC(=O)NC(CC(C)C)C(=O)OC)C[N+](C)(C)C (stereo not drawn) [propionyl carnitine amide of leucine methyl ester] | 600 | 2350 |  | 45 |  | 75 | 62 | 31 | 32 | responders at 100 mg/kg [5]: 70%
